# Tested on: MAM structure in HEK293 cells
# Assay: Verification of MAM specificity of the fluorescent marker using a drug (MAM suppressor)
# Format: cell-based
# Details: HEK293 cells transfected with the MAM-specific bimolecular fluorescent marker; 150 μM added to the cell culture solution; incubated for 3 or 24 hours; fluorescence microscope (FIG. 7)
# Protocol: HEK293 cells transfected in Example 4-1 were incubated in DMEM containing a 10% fetal bovine serum (FBS) for 24 hours under conditions of 37° C. and 5% CO2. Afterward, the culture solution was washed with PBS, and then cells were fixed by treatment with a 4% para-formaldehyde cell fixing solution for 10 minutes. The cell fixing solution was sufficiently washed with PBS, and a cover glass was immobilized on a slide glass using a mounting solution, thereby manufacturing a microscope sample. […]
# The MAM-specific bimolecular fluorescent marker was transfected into HEK293 cells in the same manner as in Example 5-1, 150 μM of methyl-β-cyclodextrin known as a MAM suppressor was added to the cell culture solution, and the cells were incubated for 3 or 24 hours under cell culture conditions, thereby manufacturing a microscope sample, and then the microscope sample was observed using a fluorescence microscope.
substance,measurement,value
methyl-β-cyclodextrin,fluorescence level of the MAM-specific fluorescent marker,significantly reduced
